Test systems include ACHN; HT-29; NCI/ADR-RES; SK-MEL-5; EKVX; UACC-257; SK-MEL-2; SNB-19; 786-0; MDA-MB-231; NCI-H226; HCT-15; IGROV-1; A498; Hs-578T; OVCAR-5; MCF7; RPMI-8226; HCC 2998.
Assay in all cases: inhibition of tumour cell growth, NCI panel, 48 h

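Following 48 hours of exposure in 96-well plates, responses at five concentrations were used to interpolate endpoints linearly. GI50 marks 50% less growth.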 Active and inactive are the calls of the source. No stated cut-off is given here; in the data, active = GI50 up to about 1.1 µM and inactive = higher.

Regarding `CCn1c2ccccc2c2nnc(NCCCO)nc21`, the GI50 is > 100 µM (inactive) in the test with ACHN; > 100 µM (inactive) in the test with HT-29; > 100 µM (inactive) in the test with NCI/ADR-RES; 94.4 µM (inactive) in the test with SK-MEL-5; 28 µM (inactive) in the test with EKVX; > 100 µM (inactive) in the test with UACC-257. Moreover, the GI50 with SK-MEL-2 was > 100 µM (inactive); in the test on SNB-19 it was > 100 µM (inactive); in the test with 786-0, > 100 µM (inactive); in the test with MDA-MB-231, > 100 µM (inactive); in the test with NCI-H226, > 100 µM (inactive); in the test on HCT-15, over 100 µM. Moreover, the GI50 was > 100 µM (inactive) in the test on IGROV-1; > 100 µM (inactive) with A498; 50.2 µM (inactive) in the test with Hs-578T; > 100 µM (inactive) in the test on OVCAR-5; > 100 µM (inactive) with MCF7; > 100 µM (inactive) with RPMI-8226.

As for `CC(=O)OCCOCn1c2c(c(=S)[nH]c1=O)CCC2`, the GI50 in the test with ACHN, with HT-29, in the test on SK-MEL-5, with HCC 2998, with EKVX and with UACC-257 was > 100 µM (inactive) in each case. The GI50 in the test on SK-MEL-2 was > 100 µM (inactive); with SNB-19, > 100 µM (inactive); with 786-0, 93.8 µM (inactive); in the test on MDA-MB-231 it was > 100 µM (inactive); with NCI-H226, > 100 µM (inactive); in the test with HCT-15 it was over 100 µM. The GI50 in the test with IGROV-1, in the test with Hs-578T, in the test with OVCAR-5, with MCF7 and with RPMI-8226 was > 100 µM (inactive) each time.

Take `COc1cc(C2=N/C(=C/c3cccs3)C(=O)O2)cc(OC)c1OC`: the GI50 with ACHN, in the test with HT-29, with SK-MEL-5, in the test on HCC 2998, in the test with EKVX and with UACC-257 was > 100 µM (inactive) in each case. In addition, the GI50 is > 100 µM (inactive) in the test with SK-MEL-2; > 100 µM (inactive) in the test with SNB-19; > 100 µM (inactive) in the test with 786-0; > 100 µM (inactive) in the test on MDA-MB-231; > 100 µM (inactive) in the test on NCI-H226; over 100 µM with HCT-15. The GI50 in the test with IGROV-1, with A498, with Hs-578T, with OVCAR-5, in the test on MCF7 and in the test on RPMI-8226 was > 100 µM (inactive) in each case.

For the compound `C1CN2CCNCCN(CCN1)CC2`, the GI50 with ACHN, in the test with HT-29, in the test with NCI/ADR-RES, in the test on SK-MEL-5, in the test on EKVX and with UACC-257 was > 100 µM (inactive) each time. Further, the GI50 in the test with SK-MEL-2 is > 100 µM (inactive); with SNB-19, > 100 µM (inactive); in the test with 786-0 it was > 100 µM (inactive); with MDA-MB-231, > 100 µM (inactive); in the test with NCI-H226, > 100 µM (inactive); in the test with HCT-15, over 100 µM. The GI50 in the test with IGROV-1, with A498, with Hs-578T, with OVCAR-5, in the test with MCF7 and in the test with RPMI-8226 was > 100 µM (inactive) throughout.

Regarding `COC(=O)C1SC(N(C)c2ccccc2)=NC12c1ccccc1Nc1ccccc12` (stereo not drawn), the GI50 with ACHN was 31 µM (inactive); in the test on HT-29 it was 19.3 µM (inactive); in the test on NCI/ADR-RES, 13.5 µM (inactive); with SK-MEL-5, 12.9 µM (inactive); in the test on HCC 2998 it was 20.5 µM (inactive); in the test with EKVX, 22.8 µM (inactive). Besides, the GI50 in the test on UACC-257 is 25.2 µM (inactive); with SK-MEL-2, 15.5 µM (inactive); in the test on SNB-19, 23.9 µM (inactive); in the test with 786-0, 26.1 µM (inactive); with NCI-H226 it was 20.7 µM (inactive); with HCT-15, 13.6 µM. Moreover, the GI50 in the test on IGROV-1 was 14.2 µM (inactive); with A498, 20.7 µM (inactive); with Hs-578T, 14.5 µM (inactive); in the test on OVCAR-5 it was 25.3 µM (inactive); in the test on MCF7 it was 22 µM (inactive); with RPMI-8226, 3.08 µM (inactive).

For `CSc1ccc(/C=C2\CNC/C(=C\c3ccc(SC)cc3)C2=O)cc1`, the GI50 was 120 µM (inactive) in the test on ACHN; > 371 µM (inactive) in the test on SK-MEL-5; > 170 µM (inactive) in the test with EKVX; > 143 µM (inactive) in the test with UACC-257; > 194 µM (inactive) in the test on SK-MEL-2; 26.7 µM (inactive) in the test on SNB-19. Further, the GI50 in the test on 786-0 was 29.3 µM (inactive); with MDA-MB-231 it was 86.9 µM (inactive); with NCI-H226, 40.6 µM (inactive); in the test on HCT-15, over 179 µM; with IGROV-1, > 81.7 µM (inactive); in the test with Hs-578T it was 64.1 µM (inactive). Besides, the GI50 in the test on OVCAR-5 was > 284 µM (inactive); in the test on RPMI-8226, > 79.8 µM (inactive).

Take `COc1cc(N(CCC#N)CCC#N)ccc1/C=N\NC(=O)c1ccc(C)cc1`: the GI50 in the test with ACHN, in the test on HT-29, in the test with NCI/ADR-RES, with SK-MEL-5, with EKVX and in the test on UACC-257 was > 100 µM (inactive) in each case. The GI50 is 17.3 µM (inactive) in the test with SK-MEL-2; > 100 µM (inactive) with SNB-19; > 100 µM (inactive) in the test on 786-0; 18.2 µM (inactive) in the test with MDA-MB-231; > 100 µM (inactive) with NCI-H226; over 100 µM with HCT-15. In addition, the GI50 in the test with IGROV-1, with Hs-578T and in the test on OVCAR-5 was > 100 µM (inactive) in each case.

As to `CCOC(=O)NC1CN2CCC1CC2` (stereo not drawn), the GI50 with ACHN, with HT-29, in the test on NCI/ADR-RES, in the test on SK-MEL-5, in the test on HCC 2998 and in the test on EKVX was > 100 µM (inactive) each time. Further, the GI50 in the test with UACC-257, in the test with SK-MEL-2, in the test with SNB-19, with 786-0, with MDA-MB-231 and in the test on NCI-H226 was > 100 µM (inactive) throughout. For the same compound, the GI50 with HCT-15 is over 100 µM; in the test on IGROV-1 it was > 100 µM (inactive); in the test on A498, > 100 µM (inactive); in the test with Hs-578T it was > 100 µM (inactive); in the test on OVCAR-5, > 100 µM (inactive); in the test on RPMI-8226, > 100 µM (inactive).

Regarding `O=c1cc(-c2ccccc2)oc2ccc(-c3ccc4oc(-c5ccccc5)cc(=O)c4c3)cc12`, the GI50 in the test on ACHN was 20.5 µM (inactive); with HT-29, 30.9 µM (inactive); in the test on NCI/ADR-RES it was 16.8 µM (inactive); in the test on SK-MEL-5, 12.9 µM (inactive); in the test with HCC 2998, 16 µM (inactive); in the test on EKVX it was 3.75 µM (inactive). In addition, the GI50 in the test with UACC-257 was > 10 µM (inactive); in the test on SK-MEL-2, 18.2 µM (inactive); in the test with SNB-19 it was 6.82 µM (inactive); in the test with 786-0, 28.4 µM (inactive); with HCT-15, 15.8 µM; in the test on IGROV-1, 26.9 µM (inactive). The GI50 in the test with A498 is 14.7 µM (inactive); with Hs-578T, 12.2 µM (inactive); with OVCAR-5, 27.6 µM (inactive); in the test with MCF7, 18.8 µM (inactive); in the test with RPMI-8226 it was 13.5 µM (inactive).

These data come from ChEMBL document CHEMBL1201862, “PubChem BioAssay data set” (2004).
